Data reported in the METLIN SMRT retention time set (Domingo-Almenara et al. 2019).

Assay: gradient 5% acetonitrile 3 min, to 50% in 2 min, to 85% in 15 min, held 3 min, 100 µL/min
Settings: column: Zorbax Extend-C18 2.1 x 50 mm; eluents: water / acetonitrile, 0.1% formic acid
How it was run: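 Retention time was recorded from adduct peaks, which were picked computationally and each inspected manually. Pure standards ran in mixtures of ~100 molecules on HPLC coupled to a quadrupole time-of-flight mass spectrometer, in positive and negative ionization mode, through a Zorbax Extend-C18 column (2.1 × 50 mm, 1.8 μm) at 100 μL/min. Eluents were water and acetonitrile, each with 0.1% formic acid.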

Row | RP-LC retention time | Structure (SMILES)
1 | 827 s | Cn1nc(N2CCCC(NC(=O)c3cc4cc(Cl)ccc4[nH]3)C2)ccc1=O (stereo not drawn)
2 | 626 s | CCOC(=O)c1c(C)[nH]c(CCC(=O)NCc2cn[nH]c2C)c1C
3 | 912 s | CCCn1c(=O)c(N2CCN(C(=O)C3CC3)CC2)nc2ccccc21
4 | 778 s | CCOC(=O)c1c(C)[nH]c(C(=O)N2CCC(CC(=O)NC3CCCCC3)CC2)c1C
5 | 1060 s | Cc1oc(-c2ccccc2)nc1Cn1ccn2nc(-c3cccs3)cc2c1=O
6 | 773 s | COc1cccc(-c2cn3ccn(-c4ccccc4)c(=O)c3n2)c1
7 | 771 s | COc1ccc(OCC(=O)N2CCC(C(=O)NCc3csc(-c4cccs4)n3)CC2)cc1
8 | 708 s | N#Cc1cccc(-c2cn3c(n2)N(C(=O)c2ccccc2)CCC3)c1
9 | 783 s | CC1CCCC(C)N1CCCNC(=O)c1cc2sccc2n1Cc1ccc(Cl)cc1 (stereo not drawn)
10 | 595 s | O=C(N[C@@H]1CN(c2ncccn2)C[C@H]1CO)c1ccc(F)cn1
11 | 711 s | CCN(CC)CCNC(=O)c1cn(C)nc1S(=O)(=O)N1CCN(c2cccc(Cl)c2)CC1
12 | 802 s | CC1=C(c2ccc(F)cc2)S(=O)(=O)N=C1N1CCCN(C(=O)c2ccsc2)CC1
13 | 594 s | Cc1ccc2cc(CCC(=O)NCCN3CCOCC3)c(=O)[nH]c2c1
14 | 950 s | Cc1onc(-c2ccccc2Cl)c1C(=O)NCC1(c2cccs2)CC1
15 | 1020 s | Cc1ccc2c(c1)N(S(C)(=O)=O)CCC(C(=O)Nc1ccccc1C(C)C)O2 (stereo not drawn)
16 | 543 s | COc1ccc(Cl)cc1C(=O)N1CCC(c2nc3ccncc3n2C(C)C)C1 (stereo not drawn)
17 | 776 s | Cc1nc2ccn(Cc3ccco3)c(=O)c2cc1C(=O)NCCC(C)C
18 | 1320 s | Cc1nc(-c2csc(S(=O)(=O)N3CCN(c4ccccc4Cl)CC3)c2)sc1C
19 | 618 s | COc1ccc(C(=O)N2CCc3ccc(C(=O)NC4CCN(C)CC4)cc32)cc1
20 | 832 s | Cc1ccc(-c2nc(-n3c(C)c4c(C)nnc(C)c4c3C)sc2C)cc1C
21 | 607 s | CCN(CC)CCCNC(=O)c1noc2c1CCCC2
22 | 890 s | Cc1nc(-c2ccc(N3CCN(C(=O)c4cc(F)ccc4F)CC3)nc2)sc1C

Row | RP-LC retention time | Structure (SMILES)
23 | 826 s | Cc1cccc(N2C(=O)CN(CCc3ccccc3)[C@H]3CS(=O)(=O)C[C@H]32)c1
24 | 628 s | CCCN1CCN(c2cc(C(=O)O)c3cc(NC(=O)c4ccc(Br)cc4)ccc3n2)CC1
25 | 657 s | Cc1ccc(-c2cc(C(=O)NCCN(C)C)n(C)c2)cc1
26 | 968 s | O=C(Nc1ccc2c(c1)OCCO2)C1CCCN(S(=O)(=O)Cc2ccccc2Cl)C1 (stereo not drawn)
27 | 1310 s | CCCCCn1c(=O)c2ccccc2n(Cc2nc(-c3cccc(C)c3)no2)c1=O
28 | 911 s | O=C(NC1(c2nc(-c3ccncc3)no2)CCCCC1)c1ccccc1F
29 | 1120 s | CCOc1ccc(-c2cc3c(=O)n(CC(O)c4ccc(C(C)C)cc4)ccn3n2)cc1 (stereo not drawn)
30 | 681 s | COCC(=O)N1CCCc2ccc(NC(=O)C3CC(=O)N(c4ccc(F)cc4)C3)cc21 (stereo not drawn)
31 | 749 s | CN1C(=O)c2cccnc2Sc2cc(NC(=O)C3CCCC3)ccc21
32 | 652 s | Cc1cc(-c2ncc(CC(=O)Nc3ccc(-c4cnccn4)cn3)cc2C)ccn1
33 | 642 s | CCCN1CCN(c2cc(C(=O)O)c3cc(NS(=O)(=O)c4ccc(CC)cc4)ccc3n2)CC1
34 | 942 s | CCCN1C(=O)C(C)(C(=O)NCc2ccccc2Cl)Oc2cccnc21 (stereo not drawn)
35 | 678 s | Cc1cc2n(n1)CCCN2C(=O)CCC(=O)N1CCN(c2ccccc2)CC1
36 | 668 s | CN1C(=O)c2cccn2CC1CNS(=O)(=O)c1ccccc1 (stereo not drawn)
37 | 824 s | Cc1ccsc1C(=O)NCCn1c(=O)n(Cc2ccc(F)cc2)c2cccnc21
38 | 600 s | O=C(OCc1cc(-c2cccs2)on1)c1ccc(Cn2ccnc2)cc1
39 | 1090 s | c1ccc(-c2cc3ccccc3[nH]2)cc1
40 | 556 s | O=C(c1ccc[nH]c1=O)N1CCC(Cn2c(COc3ccccc3)nc3ccccc32)CC1
41 | 632 s | CCN1CCN(CCNC(=O)C2CCCN(c3ncc(-c4cccc(F)c4)cn3)C2)CC1 (stereo not drawn)
42 | 680 s | CCCNC(=O)C1CCCN(c2nc3ncn(CC(=O)NCc4ccc(OC)cc4)c(=O)c3s2)C1 (stereo not drawn)
43 | 1190 s | CCc1nc2cc(-c3noc(-c4c(F)cccc4Cl)n3)ccc2o1
44 | 710 s | CCc1nc2ccc(-c3noc(-c4cccc(C#N)c4)n3)cc2n1CC

Row | RP-LC retention time | Structure (SMILES)
45 | 740 s | COc1ccc(OC)c(NC(=O)N2CCC3(CC2)NC(=O)c2ccccc2O3)c1
46 | 788 s | CC(C)c1ccc(OCC(O)Cn2c(C3CC3)nc3ccccc32)cc1 (stereo not drawn)
47 | 793 s | Cc1cc(=O)n(CC(=O)Nc2ccc(Br)cc2)c(N2CCC(C)CC2)n1
48 | 731 s | CCN1C(=O)c2cccc3c(NC(=O)c4cccs4)ccc1c23
49 | 1060 s | COc1cccc(-c2noc(Cc3nnc(-c4cc(C)cc(C)c4)o3)n2)c1OC
50 | 711 s | CCN1C(=O)c2cccnc2Sc2cc(NC(=O)C(C)C)ccc21
51 | 614 s | O=C(NCCN1CCCCCC1)C1CCN(c2cnn(Cc3ccccc3)c(=O)c2)CC1
52 | 903 s | Cc1ccc(N2CCC(NC(=O)Nc3ccc(F)cc3F)C2=O)cc1C (stereo not drawn)
53 | 846 s | O=C(COc1ccccc1)N1CC2CN(S(=O)(=O)c3ccc(F)cc3)CC(C1)O2
54 | 870 s | Cc1ccc(-c2nc3nc(C)cc(C)n3c2Nc2ccc(C(C)C)cc2)cc1
55 | 959 s | COc1ccc(CNC(=O)C(C)n2ccc3cc(S(=O)(=O)N4CCCCC4)ccc32)c(OC)c1 (stereo not drawn)
56 | 659 s | Cc1cncc(CN2CCC(=C3c4ccc(Cl)cc4CCc4cccnc43)CC2)c1
57 | 1150 s | Cc1ccc(Sc2nccnc2N2CCCC(C(=O)NC3CCCCC3)C2)cc1 (stereo not drawn)
58 | 761 s | CCc1ccc(C2=C(C)C(N3CCCN(C(=O)NCCCOC)CC3)=NS2(=O)=O)cc1
59 | 669 s | Fc1ccc(-c2csc(Nc3cccnc3)n2)cc1
60 | 608 s | Cc1ccc2c(Nc3ccc(Cl)cc3)c(C(=O)N3CCOCC3)cnc2n1
61 | 831 s | COc1ccc(-c2nc3cnccn3c2Nc2cc(OC)ccc2OC)cc1
62 | 1030 s | O=C(Nc1ccc(-c2nc(-c3ccccc3)no2)cc1)C1CC(=O)N(c2ccccc2)C1 (stereo not drawn)
63 | 838 s | O=C(c1ccco1)N1CCN(C(=O)c2nnn3c2COC(c2ccc(Cl)cc2)C3)CC1 (stereo not drawn)
64 | 621 s | CCOC(=O)C1CCCN(C(=O)CCC2NC(=O)c3ccccc3NC2=O)C1 (stereo not drawn)
65 | 634 s | COc1ccc(S(=O)(=O)NC2CCN(C(=O)C3CCN(C(C)=O)CC3)CC2)cc1
66 | 1010 s | CCn1c(=O)c2ccccc2n(Cc2nc(-c3ccc(F)cc3)no2)c1=O

Row | RP-LC retention time | Structure (SMILES)
67 | 812 s | CCCn1cc(CCNC(=O)c2cccc(Cl)c2)c2cccnc21
68 | 1180 s | COc1ccc(OC)c(-c2csc(-c3nnn(-c4cccc(Cl)c4)c3N)n2)c1
69 | 566 s | O=C(Cn1nc(C(=O)N2CCOCC2)cc1C1CC1)NCCCN1CCCC1=O
70 | 789 s | Cc1ncoc1C(=O)N1CCC(F)(F)C(COCC2CC2)C1 (stereo not drawn)
71 | 856 s | CN(CCc1noc(COc2ccc(Cl)cc2)n1)C(=O)c1ccco1
72 | 1140 s | CCc1cc(C(=O)Nc2ccc(C)cc2F)nc2ccnn12
73 | 1000 s | O=C1C2N=NN(Cc3nc(-c4ccc5c(c4)OCO5)no3)C2C(=O)N1c1ccc2c(c1)CCC2 (stereo not drawn)
74 | 588 s | c1ccc(-c2nc(C3CC3)no2)c(OC2CCNC2)c1 (stereo not drawn)
75 | 910 s | O=C(Nc1cnc(N2CCN(c3ccccc3Cl)CC2)c(C(=O)O)c1)c1cccs1
76 | 1050 s | Cc1ccc(N2CCN(C(=O)C3CCCN(c4ncnc5c4nc4n5CCCCC4)C3)CC2)c(C)c1 (stereo not drawn)
77 | 741 s | CCN1C(=O)c2c(C(=O)NCc3ccccc3F)ncn2CC1(C)C(=O)NC1CCCC1 (stereo not drawn)
78 | 1060 s | CC(C)OC(=O)N1CCC(Oc2ncnc3c2cnn3-c2ccc(S(C)(=O)=O)cc2F)CC1
79 | 740 s | CCC(=O)Nc1ccc(OCc2cc(C(=O)NC3CCCC3)no2)cc1
80 | 876 s | CCOC(=O)c1cnc(Nc2nc(-c3ccccc3)c3ccccc3n2)nc1C
81 | 741 s | O=C(Nc1ccc(Cl)cc1F)N1CCC(N2CC(F)(F)C[C@H]2COCC2CC2)CC1
82 | 848 s | CCc1nc(OCC(=O)Nc2cc(Cl)c(OC)cc2OC)c2ccccc2n1
83 | 733 s | CCOC(=O)c1oc2ccc(S(=O)(=O)N3CCCC(CN4CCCC4)CC3)cc2c1C (stereo not drawn)
84 | 546 s | O=C(c1ccc2cc[nH]c2c1)N1CCC(c2nc(C3CC3)n[nH]2)CC1
85 | 955 s | Cc1ccc(Cn2c(N3CCCC(C(=O)NCC(C)C)C3)nc3ccsc3c2=O)cc1 (stereo not drawn)
86 | 922 s | Cn1c(=O)n(Cc2cccc(Cl)c2)c(=O)c2cnc(-c3ccncc3)nc21
87 | 744 s | O=C(Cc1c[nH]c2ccccc12)N1CCC(c2noc(C3CC3)n2)C1 (stereo not drawn)
88 | 953 s | CCOc1ccc(OCC)c(NC(=O)C(C)Oc2ccc(=O)n(-c3ccc(F)cc3)n2)c1 (stereo not drawn)
